These are literature values, as cited in US20150374773A1, “Homeopathic Composition Comprising Hypericum Perforatum Extract And Essential Oils For The Treatment Of Neuropathic Pain” (NEURAGEN CORP., priority 2008, published 2015).

The test system of this data set is neuropathic pain. Conditions: literature statement.

Each structure is given as a SMILES string.

`NCC1(CC(=O)O)CCCCC1` [gabapentin]: the “efficacy in neuropathic pain” value was “effective in painful diabetic neuropathy, mixed neuropathies, and postherpetic neuralgia”.
Turning to `Nc1nnc(-c2cccc(Cl)c2Cl)c(N)n1` [Lamotrigine], the “efficacy in neuropathic pain” value is “no better than placebo”.
